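Five concentrations, 48 hours, 96-well plates. The concentration for 50% growth inhibition is given as GI50.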 Activity calls are given as the source filed them. Rule as the data show it: active = GI50 up to about 1.1 µM and inactive = higher.
What was measured:
Test in all cases: inhibition of tumour cell growth, NCI panel, 48 h
[1] = test system: OVCAR-4
[2] = test system: NCI-H460
[3] = test system: HCT-116
[4] = test system: SF-268
[5] = test system: MDA-MB-435
[6] = test system: TK-10
[7] = test system: RXF 393
[8] = test system: CAKI-1
[9] = test system: NCI-H23
[10] = test system: EKVX
[11] = test system: SK-MEL-28
[12] = test system: OVCAR-8
[13] = test system: PC-3
[14] = test system: COLO 205
[15] = test system: T47D
[16] = test system: KM12
[17] = test system: NCI/ADR-RES
[18] = test system: SK-MEL-2
[19] = test system: HL-60
[20] = test system: HT-29

Measured: GI50

Cc1ccc(S(=O)(=O)N2CCSCCSCCSCCSCC2)cc1
inactive: [1] 27.8 µM | [2] 56.4 µM | [3] 40 µM | [4] 34.5 µM | [5] 73.8 µM | [6] 44.6 µM | [7] > 27.9 µM | [8] 22.4 µM | [9] 40.1 µM | [10] 48.5 µM | [11] > 88.5 µM | [12] 24.3 µM | [13] 55 µM | [14] > 100 µM | [15] 36.3 µM | [16] > 100 µM | [17] 32 µM | [18] > 34.6 µM | [19] 99.8 µM | [20] > 100 µM

O=C(O)[C@@H]1CCS(=O)(=O)N1
inactive: [1] > 100 µM | [2] > 100 µM | [3] > 100 µM | [4] > 100 µM | [5] > 100 µM | [6] > 100 µM | [7] > 100 µM | [8] > 100 µM | [9] > 100 µM | [10] > 100 µM | [11] > 100 µM | [12] > 100 µM | [13] > 100 µM | [14] > 100 µM | [15] > 100 µM | [16] > 100 µM | [17] > 100 µM | [18] > 100 µM | [19] > 100 µM | [20] > 100 µM

O=C1COc2ccc([N+](=O)[O-])cc2C(=O)C1
inactive: [1] > 10 µM | [2] > 10 µM | [3] > 10 µM | [4] > 10 µM | [5] > 10 µM | [6] > 10 µM | [7] > 10 µM | [8] > 10 µM | [9] > 10 µM | [10] > 10 µM | [11] > 10 µM | [12] > 10 µM | [13] > 10 µM | [14] > 10 µM | [15] > 10 µM | [16] > 10 µM | [17] > 10 µM | [18] > 10 µM | [19] > 10 µM | [20] > 10 µM

COc1cc(C)c(/C=C2/N=C(c3ccccc3)OC2=O)c([N+](=O)[O-])c1OC
inactive: [1] > 100 µM | [2] > 100 µM | [3] > 100 µM | [4] > 100 µM | [5] > 100 µM | [6] > 100 µM | [7] > 100 µM | [8] > 100 µM | [9] > 100 µM | [10] > 100 µM | [11] > 100 µM | [12] > 100 µM | [13] > 100 µM | [14] > 100 µM | [15] > 100 µM | [16] > 100 µM | [17] > 100 µM | [18] > 100 µM | [19] > 100 µM | [20] > 100 µM

COc1ccc2c(c1)[C@@H]1c3cc(OC)c(OC)cc3CCN1CCC2
inactive: [1] 35.3 µM | [2] 31.4 µM | [3] 76.2 µM | [4] > 100 µM | [5] > 100 µM | [6] > 100 µM | [7] > 100 µM | [8] > 100 µM | [9] > 100 µM | [10] > 100 µM | [11] > 100 µM | [12] > 100 µM | [13] 73.5 µM | [14] > 100 µM | [15] 31.6 µM | [16] > 100 µM | [17] > 100 µM | [18] > 100 µM | [19] > 100 µM | [20] 93.1 µM

O=C(c1ccccc1)N1C(=O)N(c2ccccc2)C(=N/c2ccccc2)/C1=N\c1ccccc1
inactive: [1] 23.4 µM | [2] 15 µM | [3] 47.9 µM | [4] > 100 µM | [5] > 100 µM | [6] > 100 µM | [7] 99.3 µM | [8] 48.1 µM | [9] > 100 µM | [10] > 100 µM | [11] > 100 µM | [12] > 100 µM | [13] > 100 µM | [14] 70.5 µM | [15] > 100 µM | [16] 13.5 µM | [17] > 100 µM | [18] 29.9 µM | [19] > 100 µM | [20] 33.7 µM

CS(=O)(=O)Nc1ccc(NCc2c[nH]c3ccc4ncccc4c23)cc1
inactive: [1] 25.9 µM | [2] 30 µM | [3] 20.3 µM | [4] 23.7 µM | [5] 16.9 µM | [6] 25.6 µM | [7] 23.9 µM | [8] 19.6 µM | [9] 14.1 µM | [10] 40.4 µM | [11] 26.1 µM | [12] 34 µM | [13] 19 µM | [14] 18.6 µM | [15] 20.6 µM | [16] 17.5 µM | [17] > 100 µM | [18] 17.1 µM | [19] 22.3 µM | [20] 34.8 µM

O=c1[nH]nc(Nc2ccc(Cl)cc2)c2nnn(C3CCCCC3)c12
inactive: [1] 17 µM | [2] 41.4 µM | [3] 42.1 µM | [4] 36.6 µM | [5] 46.3 µM | [6] 53 µM | [7] 30.4 µM | [8] 16.2 µM | [9] 45.3 µM | [10] 84.1 µM | [11] > 100 µM | [12] 14.1 µM | [13] > 100 µM | [14] 59.2 µM | [15] > 100 µM | [16] 65.5 µM | [17] 32.1 µM | [18] > 100 µM | [19] 86.3 µM | [20] 26.1 µM

CC(=O)c1ccc(/N=N/c2ccc3nonc3c2N)cc1
inactive: [1] > 100 µM | [2] > 100 µM | [3] > 100 µM | [4] > 100 µM | [5] > 100 µM | [6] 53.1 µM | [7] > 100 µM | [8] > 100 µM | [9] 26.9 µM | [10] 9.98 µM | [11] > 100 µM | [12] > 100 µM | [13] > 100 µM | [14] > 100 µM | [15] > 100 µM | [16] > 100 µM | [17] > 100 µM | [18] > 100 µM | [19] > 100 µM | [20] > 100 µM

COc1cccc2cc(C(=O)O)c(=O)oc12
inactive: [1] > 100 µM | [2] > 100 µM | [3] > 100 µM | [4] > 100 µM | [5] > 100 µM | [6] > 100 µM | [7] > 100 µM | [8] > 100 µM | [9] > 100 µM | [10] > 100 µM | [11] > 100 µM | [12] > 100 µM | [13] > 100 µM | [14] > 100 µM | [15] > 100 µM | [16] > 100 µM | [17] > 100 µM | [18] > 100 µM | [19] > 100 µM | [20] > 100 µM

From ChEMBL document CHEMBL1201862, “PubChem BioAssay data set” (2004)
